# Experimental data as given in the NIST ThermoML archive (doi:10.1021/acs.jced.7b00297).
# ± gives the expanded uncertainty stated by the source.
# Experiment: mn = molality of the nth substance listed, in mol/kg
# Conditions: 84.5 kPa, Liquid; for speed of sound: Single path-length method; for mass density: Vibrating tube method
smiles,measurement,setting,value
CCCCn1cc[n+](C)c1.O=S(=O)([O-])C(F)(F)F [1-butyl-3-methylimidazolium trifluoromethanesulfonate] + O,speed of sound,"288.15 K, m1 = 0.0164",1468.7 ± 1 m/s
same,speed of sound,"288.15 K, m1 = 0.0259",1469.8 ± 1 m/s
same,speed of sound,"288.15 K, m1 = 0.042",1471.8 ± 1 m/s
same,speed of sound,"288.15 K, m1 = 0.0699",1475 ± 1 m/s
same,speed of sound,"288.15 K, m1 = 0.1072",1479.2 ± 1 m/s
same,speed of sound,"288.15 K, m1 = 0.1455",1483.8 ± 1 m/s
same,speed of sound,"288.15 K, m1 = 0.3021",1499.6 ± 1.1 m/s
same,speed of sound,"288.15 K, m1 = 0.4645",1513.4 ± 1.1 m/s
same,speed of sound,"288.15 K, m1 = 0.6651",1526.7 ± 1.1 m/s
same,speed of sound,"288.15 K, m1 = 0.8671",1535.6 ± 1.1 m/s
same,mass density,"288.15 K, m1 = 0.0164",1000.27 ± 4 kg/m3
same,mass density,"288.15 K, m1 = 0.0259",1000.93 ± 4 kg/m3
same,mass density,"288.15 K, m1 = 0.042",1002.06 ± 4 kg/m3
same,mass density,"288.15 K, m1 = 0.0699",1003.99 ± 4 kg/m3
same,mass density,"288.15 K, m1 = 0.1072",1006.54 ± 4 kg/m3
same,mass density,"288.15 K, m1 = 0.1455",1009.12 ± 4 kg/m3
same,mass density,"288.15 K, m1 = 0.3021",1019.31 ± 4.1 kg/m3
same,mass density,"288.15 K, m1 = 0.4645",1029.21 ± 4.1 kg/m3
same,mass density,"288.15 K, m1 = 0.6651",1040.6 ± 4.2 kg/m3
same,mass density,"288.15 K, m1 = 0.8671",1051.21 ± 4.2 kg/m3
same,speed of sound,"298.15 K, m1 = 0.0164",1498.5 ± 1 m/s
same,speed of sound,"298.15 K, m1 = 0.0259",1499.4 ± 1 m/s
same,speed of sound,"298.15 K, m1 = 0.042",1501 ± 1 m/s
same,speed of sound,"298.15 K, m1 = 0.0699",1503.5 ± 1 m/s
same,speed of sound,"298.15 K, m1 = 0.1072",1506.6 ± 1 m/s
same,speed of sound,"298.15 K, m1 = 0.1455",1510.2 ± 1 m/s
same,speed of sound,"298.15 K, m1 = 0.3021",1522.1 ± 1.1 m/s
same,speed of sound,"298.15 K, m1 = 0.4645",1532.3 ± 1.1 m/s
same,speed of sound,"298.15 K, m1 = 0.6651",1541.5 ± 1.1 m/s
same,speed of sound,"298.15 K, m1 = 0.8671",1546.9 ± 1.1 m/s
same,mass density,"298.15 K, m1 = 0.0164",998.176 ± 4 kg/m3
same,mass density,"298.15 K, m1 = 0.0259",998.823 ± 4 kg/m3
same,mass density,"298.15 K, m1 = 0.042",999.922 ± 4 kg/m3
same,mass density,"298.15 K, m1 = 0.0699",1001.79 ± 4 kg/m3
same,mass density,"298.15 K, m1 = 0.1072",1004.28 ± 4 kg/m3
same,mass density,"298.15 K, m1 = 0.1455",1006.78 ± 4 kg/m3
same,mass density,"298.15 K, m1 = 0.3021",1016.66 ± 4.1 kg/m3
same,mass density,"298.15 K, m1 = 0.4645",1026.22 ± 4.1 kg/m3
same,mass density,"298.15 K, m1 = 0.6651",1037.21 ± 4.2 kg/m3
same,mass density,"298.15 K, m1 = 0.8671",1047.44 ± 4.2 kg/m3
same,speed of sound,"308.15 K, m1 = 0.0164",1521.1 ± 1 m/s
same,speed of sound,"308.15 K, m1 = 0.0259",1521.8 ± 1 m/s
same,speed of sound,"308.15 K, m1 = 0.042",1523 ± 1 m/s
same,speed of sound,"308.15 K, m1 = 0.0699",1524.8 ± 1 m/s
same,speed of sound,"308.15 K, m1 = 0.1072",1527.2 ± 1 m/s
same,speed of sound,"308.15 K, m1 = 0.1455",1529.8 ± 1 m/s
same,speed of sound,"308.15 K, m1 = 0.3021",1538.4 ± 1.1 m/s
same,speed of sound,"308.15 K, m1 = 0.4645",1545.4 ± 1.1 m/s
same,speed of sound,"308.15 K, m1 = 0.6651",1551.1 ± 1.1 m/s
same,speed of sound,"308.15 K, m1 = 0.8671",1553.8 ± 1.1 m/s
same,mass density,"308.15 K, m1 = 0.0164",995.134 ± 4 kg/m3
same,mass density,"308.15 K, m1 = 0.0259",995.765 ± 4 kg/m3
same,mass density,"308.15 K, m1 = 0.042",996.836 ± 4 kg/m3
same,mass density,"308.15 K, m1 = 0.0699",998.662 ± 4 kg/m3
same,mass density,"308.15 K, m1 = 0.1072",1001.08 ± 4 kg/m3
same,mass density,"308.15 K, m1 = 0.1455",1003.52 ± 4 kg/m3
same,mass density,"308.15 K, m1 = 0.3021",1013.11 ± 4.1 kg/m3
same,mass density,"308.15 K, m1 = 0.4645",1022.39 ± 4.1 kg/m3
same,mass density,"308.15 K, m1 = 0.6651",1033.03 ± 4.1 kg/m3
same,mass density,"308.15 K, m1 = 0.8671",1042.94 ± 4.2 kg/m3
same,speed of sound,"318.15 K, m1 = 0.0164",1537.4 ± 1 m/s
same,speed of sound,"318.15 K, m1 = 0.0259",1537.9 ± 1 m/s
same,speed of sound,"318.15 K, m1 = 0.042",1538.8 ± 1 m/s
same,speed of sound,"318.15 K, m1 = 0.0699",1540 ± 1 m/s
same,speed of sound,"318.15 K, m1 = 0.1072",1541.7 ± 1 m/s
same,speed of sound,"318.15 K, m1 = 0.1455",1543.6 ± 1 m/s
same,speed of sound,"318.15 K, m1 = 0.3021",1549.2 ± 1.1 m/s
same,speed of sound,"318.15 K, m1 = 0.4645",1553.4 ± 1.1 m/s
same,speed of sound,"318.15 K, m1 = 0.6651",1556.2 ± 1.1 m/s
same,speed of sound,"318.15 K, m1 = 0.8671",1556.5 ± 1.1 m/s
same,mass density,"318.15 K, m1 = 0.0164",991.289 ± 4 kg/m3
same,mass density,"318.15 K, m1 = 0.0259",991.906 ± 4 kg/m3
same,mass density,"318.15 K, m1 = 0.042",992.952 ± 4 kg/m3
same,mass density,"318.15 K, m1 = 0.0699",994.732 ± 4 kg/m3
same,mass density,"318.15 K, m1 = 0.1072",997.093 ± 4 kg/m3
same,mass density,"318.15 K, m1 = 0.1455",999.47 ± 4 kg/m3
same,mass density,"318.15 K, m1 = 0.3021",1008.81 ± 4 kg/m3
same,mass density,"318.15 K, m1 = 0.4645",1017.83 ± 4.1 kg/m3
same,mass density,"318.15 K, m1 = 0.6651",1028.16 ± 4.1 kg/m3
same,mass density,"318.15 K, m1 = 0.8671",1037.8 ± 4.2 kg/m3
